Reference: PubChem BioAssay AID256 (DTP/NCI, 2004)
Values joined by “and” are separate entries in the source; they are usually repeats but may differ in a detail not shown here. Identical values can stand only once. Toxic doses and inconclusive results are not listed. Rule for the calls: active = survival T/C of 150% or more; inactive = T/C below 125% in these data.

Tested on: CD2F1 mice, L1210 leukemia ip, survival T/C
Test: NCI In Vivo Anticancer Drug Screen. Data for tumor model L1210 Leukemia (intraperitoneal) in CD2F1 (CDF1) mice
Settings: higher = longer survival
Summary of the method: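 Antitumor effect is scored in animals hosting a serially transplanted tumor. Values compare compound-dosed animals against vehicle-only controls as a simple quotient.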

[1] = endpoint: mean survival time, dose: 25.0 mg/kg/injection, schedule: Q01DX009 (ip), vehicle: saline
[2] = endpoint: mean survival time, dose: 50.0 mg/kg/injection, schedule: Q01DX009 (ip), vehicle: Klucel (hydroxypropylcellulose) (HPC)
[3] = endpoint: mean survival time, dose: 50.0 mg/kg/injection, schedule: Q01DX009 (ip), vehicle: saline
[4] = endpoint: mean survival time, dose: 100.0 mg/kg/injection, schedule: Q01DX009 (ip), vehicle: Klucel (hydroxypropylcellulose) (HPC)
[5] = endpoint: mean survival time, dose: 100.0 mg/kg/injection, schedule: Q01DX009 (ip), vehicle: saline
[6] = endpoint: mean survival time, dose: 200.0 mg/kg/injection, schedule: Q01DX009 (ip), vehicle: Klucel (hydroxypropylcellulose) (HPC)
[7] = endpoint: mean survival time, dose: 200.0 mg/kg/injection, schedule: Q01DX009 (ip), vehicle: saline
[8] = endpoint: mean survival time, dose: 400.0 mg/kg/injection, schedule: Q01DX009 (ip), vehicle: Klucel (hydroxypropylcellulose) (HPC)
[9] = endpoint: mean survival time, dose: 100.0 mg/kg/injection, schedule: Q01DX001 (ip), vehicle: saline
[10] = endpoint: mean survival time, dose: 200.0 mg/kg/injection, schedule: Q01DX001 (ip), vehicle: saline
[11] = endpoint: mean survival time, dose: 400.0 mg/kg/injection, schedule: Q01DX001 (ip), vehicle: saline
[12] = endpoint: mean survival time, dose: 100.0 mg/kg/injection, schedule: Q01DX009 (ip), vehicle: saline with Tween-80
[13] = endpoint: mean survival time, dose: 100.0 mg/kg/injection, schedule: Q04DX003 (ip), vehicle: saline with Tween-80
[14] = endpoint: mean survival time, dose: 200.0 mg/kg/injection, schedule: Q01DX009 (ip), vehicle: saline with Tween-80
[15] = endpoint: mean survival time, dose: 200.0 mg/kg/injection, schedule: Q04DX003 (ip), vehicle: saline with Tween-80
[16] = endpoint: mean survival time, dose: 400.0 mg/kg/injection, schedule: Q01DX009 (ip), vehicle: saline with Tween-80

Measured: T/C

CCN(CC)CCOC(=O)Cc1cccc2c(=O)cc(-c3ccccc3)oc12
inactive: endpoint: mean survival time, dose: 12.5 mg/kg/injection, schedule: Q01DX009 (ip), vehicle: Klucel (hydroxypropylcellulose) (HPC) 95 % of control | endpoint: mean survival time, dose: 25.0 mg/kg/injection, schedule: Q01DX009 (ip), vehicle: Klucel (hydroxypropylcellulose) (HPC) 95 % of control | [1] 95 % of control | [2] 92 % of control | [3] 111 % of control | [4] 89 % of control | [5] 96 % of control | [6] 87 % of control | [7] 111 % of control | [8] 93 % of control

COc1ccc(-n2cc(C#N)c3c(C)cc(C)nc32)cc1
inactive: [9] 100 % of control | [10] 96 % of control | [11] 87 % of control

N#Cc1nn(C2OC(COC(=O)c3ccccc3)C(OC(=O)c3ccccc3)C2OC(=O)c2ccccc2)c2nc[nH]c(=O)c12 (stereo not drawn)
inactive: endpoint: median survival time, dose: 12.5 mg/kg/injection, schedule: Q01DX005 (ip), vehicle: saline with Tween-80 107 % of control | endpoint: median survival time, dose: 25.0 mg/kg/injection, schedule: Q01DX005 (ip), vehicle: saline with Tween-80 103 % of control | endpoint: median survival time, dose: 50.0 mg/kg/injection, schedule: Q01DX005 (ip), vehicle: saline with Tween-80 97 % of control | endpoint: median survival time, dose: 100.0 mg/kg/injection, schedule: Q01DX005 (ip), vehicle: saline with Tween-80 97 % of control | endpoint: median survival time, dose: 200.0 mg/kg/injection, schedule: Q01DX005 (ip), vehicle: saline with Tween-80 119 % of control

Nc1nc(C=O)nc2c1ncn2C1OC(CO)C(O)C1O (stereo not drawn)
inactive: endpoint: median survival time, dose: 25.0 mg/kg/injection, schedule: Q01DX005 (ip), vehicle: water 101 % of control | endpoint: median survival time, dose: 50.0 mg/kg/injection, schedule: Q01DX005 (ip), vehicle: water 117 % of control | endpoint: median survival time, dose: 100.0 mg/kg/injection, schedule: Q01DX005 (ip), vehicle: water 117 % of control

N#CCC(=O)NN=C1CCCCC1
inactive: [9] 102 % of control | [10] 123 % of control | [11] 107 % of control

Nc1nc(Br)c(Br)nc1N
inactive: endpoint: mean survival time, dose: 100.0 mg/kg/injection, schedule: Q01DX009 (ip), vehicle: other 92 % of control | endpoint: mean survival time, dose: 200.0 mg/kg/injection, schedule: Q01DX009 (ip), vehicle: other 103 % of control | endpoint: mean survival time, dose: 400.0 mg/kg/injection, schedule: Q01DX009 (ip), vehicle: other 95 % of control

COc1ccc(CCNC(=O)Cc2ccc3cc(OC)c(OC)cc3c2)cc1OC
inactive: [12] 91 % of control | [13] 95 % of control | [14] 89 % of control | [15] 100 % of control

O=C(N/N=C/c1ccccc1Cl)c1ccccc1
inactive: [4] 103 % of control | [6] 98 % of control | [8] 107 % of control

COc1ccccc1NC(=O)Oc1ccc(OCc2ccccc2)cc1
inactive: [12] 94 % of control | [13] 108 % of control | [14] 88 % of control | [15] 100 % of control | [16] 87 % of control | endpoint: mean survival time, dose: 400.0 mg/kg/injection, schedule: Q04DX003 (ip), vehicle: saline with Tween-80 95 % of control

CCOC(=O)Nc1cc(C(F)(F)F)cc(C(F)(F)F)c1
inactive: [12] 94 % of control | [14] 94 % of control | [16] 96 % of control

CC(=O)OCC1OC(n2ccc3c(N)ncnc32)C(O)C1OC(C)=O (stereo not drawn)
inactive: endpoint: mean survival time, dose: 5.0 mg/kg/injection, schedule: Q01DX001 (ip), vehicle: saline 112 % of control | endpoint: mean survival time, dose: 10.0 mg/kg/injection, schedule: Q01DX001 (ip), vehicle: saline 110 % of control | endpoint: mean survival time, dose: 20.0 mg/kg/injection, schedule: Q01DX001 (ip), vehicle: saline 108 % of control

CC(=O)Oc1ccc2c(c1)C(=O)CCCCCC(=O)O2
inactive: endpoint: mean survival time, dose: 12.5 mg/kg/injection, schedule: Q01DX009 (ip), vehicle: saline 100 % of control | endpoint: mean survival time, dose: 12.5 mg/kg/injection, schedule: Q04DX003 (ip), vehicle: saline 97 % of control | endpoint: mean survival time, dose: 25.0 mg/kg/injection, schedule: Q01DX001 (ip), vehicle: saline 98 % of control | [1] 97 % of control | endpoint: mean survival time, dose: 25.0 mg/kg/injection, schedule: Q04DX003 (ip), vehicle: saline 98 % of control | endpoint: mean survival time, dose: 50.0 mg/kg/injection, schedule: Q01DX001 (ip), vehicle: saline 110 % of control | [3] 94 % of control | endpoint: mean survival time, dose: 50.0 mg/kg/injection, schedule: Q04DX003 (ip), vehicle: saline 111 % of control | [9] 98 % of control | [5] 95 % of control | endpoint: mean survival time, dose: 100.0 mg/kg/injection, schedule: Q04DX003 (ip), vehicle: saline 120 % of control | [10] 100 % of control | [7] 89 % of control | endpoint: mean survival time, dose: 200.0 mg/kg/injection, schedule: Q04DX003 (ip), vehicle: saline 102 % of control | [11] 111 % of control

CCCCC(NC(=O)CCl)C(=O)O (stereo not drawn)
inactive: endpoint: mean survival time, dose: 100.0 mg/kg/injection, schedule: Q04DX002 (ip), vehicle: saline with Tween-80 95 % of control | endpoint: mean survival time, dose: 200.0 mg/kg/injection, schedule: Q04DX002 (ip), vehicle: saline with Tween-80 103 % of control

O=[N+]([O-])c1ccc(OCc2ccccc2)nc1
inactive: endpoint: mean survival time, dose: 100.0 mg/kg/injection, schedule: Q01DX001 (ip), vehicle: saline with Tween-80 86 % of control | endpoint: mean survival time, dose: 200.0 mg/kg/injection, schedule: Q01DX001 (ip), vehicle: saline with Tween-80 100 % of control | endpoint: mean survival time, dose: 400.0 mg/kg/injection, schedule: Q01DX001 (ip), vehicle: saline with Tween-80 93 % of control

CCOC(=O)/C=C/c1c[nH]c(C(=O)OCC)c1
inactive: endpoint: mean survival time, dose: 100.0 mg/kg/injection, schedule: Q04DX002 (ip), vehicle: other 93 % of control | endpoint: mean survival time, dose: 200.0 mg/kg/injection, schedule: Q04DX002 (ip), vehicle: other 93 % of control | endpoint: mean survival time, dose: 400.0 mg/kg/injection, schedule: Q04DX002 (ip), vehicle: other 100 % of control

CC[C@]1(O)C[C@H](OC2CC(N(C)C)C(OC3CC(O)C(O)C(C)O3)C(C)O2)c2c(cc3c(c2O)C(=O)c2c(O)ccc(O)c2C3=O)[C@H]1C(=O)OC (stereo partly drawn)
inactive: endpoint: mean survival time, dose: 0.12 mg/kg/injection, schedule: Q01DX009 (ip), vehicle: Klucel (hydroxypropylcellulose) (HPC) 114 % of control and 109 % of control and 110 % of control

O=C(NCCCCCCNC(=O)Nc1cccc(Cl)c1)Nc1cccc(Cl)c1
inactive: [2] 94 % of control | [4] 91 % of control | [6] 88 % of control
